From ChEMBL document CHEMBL3763080, “Design and synthesis of a C7-aryl piperlongumine derivative with potent antimicrotubule and mutant p53-reactivating properties” (Eur J Med Chem, 2016)
The source made the active and inactive calls. The rule behind the calls is not given here.

Columns and labels:
SK-BR-3 = assay: Induction of microtubule destabilization in human SKBR3 cells assessed as soluble fraction of protein at 2.5 uM after 24 hrs by Western blot analysis; type: cell-based
[1] = tested on: Cellular tumor antigen p53 (Homo sapiens), P04637 [R175H]; assay: Reactivation of p53 R175H mutant in human SKBR3 cells assessed as accumulation of wild type p53 at 5 uM after 12 hrs by DAPI staining based confocal/multiphoton microscopic analysis; type: cell-based; conditions: SK-BR-3
[2] = tested on: Cellular tumor antigen p53 (Homo sapiens), P04637 [R175H]; assay: Reactivation of human p53 R175H mutant in human SKBR3 cells assessed as upregulation of cyclin B1 expression at 2.5 uM after 24 hrs by Western blot analysis; type: cell-based; conditions: SK-BR-3
[3] = tested on: Cellular tumor antigen p53 (Homo sapiens), P04637 [R175H]; assay: Reactivation of human p53 R175H mutant in human SKBR3 cells assessed as upregulation of MDM2 expression after 24 hrs by Western blot analysis; type: cell-based; conditions: SK-BR-3
[4] = tested on: Cellular tumor antigen p53 (Homo sapiens), P04637 [R175H]; assay: Reactivation of human p53 R175H mutant in human SKBR3 cells assessed as increase in wild type p53 expression after 12 hrs by immunoprecipitation/Western blot analysis; type: cell-based; conditions: SK-BR-3
[5] = tested on: Cellular tumor antigen p53 (Homo sapiens), P04637 [R175H]; assay: Reactivation of p53 R175H mutant in human SKBR3 cells at 5 uM after 12 hrs by flow cytometric analysis; type: cell-based; conditions: SK-BR-3
Tubulin (Bos taurus) = Tubulin (Bos taurus) (UniProt Q6B856+Q862L2+Q862F3); assay: Inhibition of bovine brain tubulin polymerization measured every 1 min for 30 mins by fluorescence assay
[6] = tested on: Cellular tumor antigen p53 (Homo sapiens), P04637 [R175H]; assay: Reactivation of human p53 R175H mutant in human SKBR3 cells assessed as upregulation of PUMA expression after 24 hrs by Western blot analysis; type: cell-based; conditions: SK-BR-3
[7] = tested on: Cellular tumor antigen p53 (Homo sapiens), P04637 [R175H]; assay: Reactivation of human p53 R175H mutant in human SKBR3 cells assessed as downregulation of CDC25C expression at 2.5 uM after 24 hrs by Western blot analysis; type: cell-based; conditions: SK-BR-3
[8] = tested on: Cellular tumor antigen p53 (Homo sapiens), P04637 [R175H]; assay: Reactivation of human p53 R175H mutant in human SKBR3 cells assessed as upregulation of Aurora kinase A expression at 2.5 uM after 24 hrs by Western blot analysis; type: cell-based; conditions: SK-BR-3
[9] = tested on: Cellular tumor antigen p53 (Homo sapiens), P04637 [R175H]; assay: Reactivation of human p53 R175H mutant in human SKBR3 cells assessed as cell cycle arrest at G2/M phase at 2.5 uM after 24 hrs by propidium iodide staining based flow cytometric analysis; conditions: SK-BR-3
[10] = tested on: Cellular tumor antigen p53 (Homo sapiens), P04637 [R175H]; assay: Reactivation of human p53 R175H mutant in human SKBR3 cells assessed as decrease in mutant p53 expression after 12 hrs by immunoprecipitation/Western blot analysis; type: cell-based; set-up: scale not given: the % may be the effect or the level left; conditions: SK-BR-3
[11] = tested on: Cellular tumor antigen p53 (Homo sapiens), P04637 [R175H]; assay: Reactivation of human p53 R175H mutant in SKBR3 cells assessed as increase in p53 DNA binding at 5 uM by non biotinylated double stranded DNA probe-based electrophoretic-mobility shift assay; type: cell-based; conditions: SK-BR-3
[12] = tested on: Cellular tumor antigen p53 (Homo sapiens), P04637 [R175H]; assay: Reactivation of human p53 R175H mutant in human SKBR3 cells assessed as upregulation of p21cip1 expression after 24 hrs by Western blot analysis; type: cell-based; conditions: SK-BR-3
[13] = tested on: Cellular tumor antigen p53 (Homo sapiens), P04637 [R175H]; assay: Reactivation of human p53 R175H mutant in SKBR3 cells assessed as increase in p53 DNA binding at 5 uM by biotinylated double stranded DNA probe-based electrophoretic-mobility shift assay; type: cell-based; conditions: SK-BR-3
[14] = Cytotoxicity against human SKBR3 cells assessed as cell viability after 72 hrs by resazurin reduction assay; type: functional, cell-based; conditions: SK-BR-3, 72 h
MCF7 = assay: Cytotoxicity against human MCF7 cells assessed as cell viability after 72 hrs by resazurin reduction assay; type: functional, cell-based; conditions: MCF7, 72 h
A549 = assay: Cytotoxicity against human A549 cells assessed as cell viability after 72 hrs by resazurin reduction assay; type: functional, cell-based; conditions: A549, 72 h
[15] = Cytotoxicity against human HT1080 cells assessed as cell viability after 72 hrs by resazurin reduction assay; type: functional, cell-based; conditions: HT-1080, 72 h
[16] = Cytotoxicity against human SF188 cells assessed as cell viability after 72 hrs by resazurin reduction assay; type: functional, cell-based; conditions: SF-188, 72 h
HT-29 = assay: Cytotoxicity against human HT-29 cells assessed as cell viability after 72 hrs by resazurin reduction assay; type: functional, cell-based; conditions: HT-29, 72 h
T98G = assay: Cytotoxicity against human T98G cells assessed as cell viability after 72 hrs by resazurin reduction assay; type: functional, cell-based
[17] = Cytotoxicity against human GBM10 cells assessed as cell viability after 72 hrs by resazurin reduction assay; type: functional, cell-based; conditions: GBM10, 72 h

For COC(=O)Nc1nc2cc(C(=O)c3cccs3)ccc2[nH]1, the Activity (SK-BR-3) was “Active”.
With COc1ccc(/C(=C\c2cc(OC)c(OC)c(OC)c2)C(=O)N2CCC=CC2=O)cc1 the Activity [1] was “Active”, the Activity [2] was “Active” and the Activity [3] was “Dose-dependent effect”. The Activity [4] was 80%, the Activity [5] was “Active” and the inhibition (Tubulin (Bos taurus)) was “Dose-dependent effect”. The Activity [6] was “Dose-dependent effect”, the Activity [7] was “Active” and the Activity [8] was “Active”. The Activity [9] was over 60%, the Activity [10] was 90% and the Activity [11] was “inactive”. For the same compound, the Activity [12] was “Dose-dependent effect” and the Activity [13] was “Active”.
With COc1ccc(/C=C\c2cc(OC)c(OC)c(OC)c2)cc1O [COMBRETASTATIN A4] the IC50 [14] was 8 nM, the IC50 (MCF7) was 42 nM and the IC50 (A549) was 3 nM. For the same compound, the inhibition (Tubulin (Bos taurus)) was “Dose-dependent effect”, the IC50 [15] was 70 nM and the IC50 [16] was 21 nM. It also gave an IC50 (HT-29) of 420 nM, an IC50 (T98G) of 11 nM and an IC50 [17] of 52 nM.
For COc1cc(/C=C/C(=O)N2CCC=CC2=O)cc(OC)c1OC [PIPLARTINE], the IC50 [14] was 4040 nM, the IC50 (MCF7) was 6140 nM and the IC50 (A549) was 6540 nM. It also gave an IC50 [15] of 3430 nM, an IC50 [16] of 3900 nM and an IC50 (HT-29) of 5490 nM. For the same compound, the IC50 (T98G) was 4920 nM and the IC50 [17] was 3810 nM.
